In PubChem BioAssay AID1963848 (Molecular Pharmacology Branch, DTP, NCI, 2024):

Test system: 379773-124-R-J2-PDC spheroid viability
Test: Anticancer human tumor 379773-124-R-J2-PDC patient-derived endometrial carcinoma cell line growth inhibition [POLQ]
Settings: spheroids with HUVEC and MSC; for IC50: curve of first compound; for viability, T/C: stronger effect = lower value; active means viability on the fitted dose curve at most 10% of control; inactive means the rest
Procedure, shortened: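 Complex spheroid viability model combining PDC tumour cells with endothelial (HUVEC) and MSC stromal cells. Novobiocin, ART-558 or RP6685 were tested singly and in combination with standard and investigational anticancer drugs. Each was titrated in half-log steps from near clinical Cmax, or from 10 microM where Cmax was unknown.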

[1] = second compound 0.0316 µM, first compound 0.0316 µM
[2] = second compound 0.0316 µM, first compound 0.1 µM
[3] = second compound 0.0316 µM, first compound 0.316 µM
[4] = second compound 0.0316 µM, first compound 1 µM
[5] = second compound 0.0316 µM, first compound 3.16 µM
[6] = second compound 0.0316 µM, first compound 10 µM
[7] = second compound 0.1 µM, first compound 0.0316 µM
[8] = second compound 0.1 µM, first compound 0.1 µM
[9] = second compound 0.1 µM, first compound 0.316 µM
[10] = second compound 0.1 µM, first compound 1 µM
[11] = second compound 0.1 µM, first compound 3.16 µM
[12] = second compound 0.1 µM, first compound 10 µM
[13] = second compound 0.316 µM, first compound 0.0316 µM
[14] = second compound 0.316 µM, first compound 0.1 µM
[15] = second compound 0.316 µM, first compound 0.316 µM
[16] = second compound 0.316 µM, first compound 1 µM
[17] = second compound 0.316 µM, first compound 3.16 µM
[18] = second compound 0.316 µM, first compound 10 µM
[19] = second compound 1 µM, first compound 0.0316 µM
[20] = second compound 1 µM, first compound 0.1 µM
[21] = second compound 1 µM, first compound 0.316 µM
[22] = second compound 1 µM, first compound 1 µM
[23] = second compound 1 µM, first compound 3.16 µM
[24] = second compound 1 µM, first compound 10 µM
[25] = second compound 3.16 µM, first compound 0.0316 µM
[26] = second compound 3.16 µM, first compound 0.1 µM
[27] = second compound 3.16 µM, first compound 0.316 µM
[28] = second compound 3.16 µM, first compound 1 µM
[29] = second compound 3.16 µM, first compound 3.16 µM
[30] = second compound 3.16 µM, first compound 10 µM
[31] = second compound 10 µM, first compound 0.0316 µM
[32] = second compound 10 µM, first compound 0.1 µM
[33] = second compound 10 µM, first compound 0.316 µM
[34] = second compound 10 µM, first compound 1 µM
[35] = second compound 10 µM, first compound 3.16 µM
[36] = second compound 10 µM, first compound 10 µM
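Further: spheroids exposed to drugs for seven days before readout.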
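Wherever viability, T/C is given: percent viability relative to DMSO vehicle control taken as 100%.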

C=CC(=O)N1CCN(c2nc(=O)n(-c3c(C)ccnc3C(C)C)c3nc(-c4c(O)cccc4F)c(F)cc23)C(C)C1 (stereo not drawn) + COC1C(OC(N)=O)C(O)C(Oc2ccc3c(O)c(NC(=O)c4ccc(O)c(CC=C(C)C)c4)c(=O)oc3c2C)OC1(C)C
inactive: viability, T/C [1] 87.3% | viability, T/C [2] 78.7% | viability, T/C [3] 91.3% | viability, T/C [4] 85.1% | viability, T/C [5] 85.7% | viability, T/C [6] 72.1% | viability, T/C [7] 87.3% | viability, T/C [8] 87.2% | viability, T/C [9] 82.2% | viability, T/C [10] 91.1% | viability, T/C [11] 87.9% | viability, T/C [12] 95% | viability, T/C [13] 91.2% | viability, T/C [14] 86.7% | viability, T/C [15] 86.8% | viability, T/C [16] 85.1% | viability, T/C [17] 79.3% | viability, T/C [18] 82.6% | viability, T/C [19] 92.1% | viability, T/C [20] 94.8% | viability, T/C [21] 93.9% | viability, T/C [22] 88.8% | viability, T/C [23] 73.8% | viability, T/C [24] 95.8% | viability, T/C [25] 73.2% | viability, T/C [26] 84.6% | viability, T/C [27] 82.9% | viability, T/C [28] 85% | viability, T/C [29] 85.9% | viability, T/C [30] 72.1% | viability, T/C [31] 91.1% | viability, T/C [32] 85.1% | viability, T/C [33] 81.5% | viability, T/C [34] 80.5% | viability, T/C [35] 86% | viability, T/C [36] 89.4%
> 10 µM: IC50 (second compound 0.0316 µM) | IC50 (second compound 0.1 µM) | IC50 (second compound 0.316 µM) | IC50 (second compound 1 µM) | IC50 (second compound 3.16 µM) | IC50 (second compound 10 µM)

COc1ccc([C@@H](O)c2cc(-c3ncnc4cc(N5CCOCC5)ccc34)c(F)cc2Cl)nn1 + COC1C(OC(N)=O)C(O)C(Oc2ccc3c(O)c(NC(=O)c4ccc(O)c(CC=C(C)C)c4)c(=O)oc3c2C)OC1(C)C
8.15 µM: IC50 (second compound 1 µM)
7.09 µM: IC50 (second compound 10 µM)
7.3 µM: IC50 (second compound 0.316 µM)
7.85 µM: IC50 (second compound 3.16 µM)
9.89 µM: IC50 (second compound 0.1 µM)
7.23 µM: IC50 (second compound 0.0316 µM)
inactive: viability, T/C [1] 89.6% | viability, T/C [2] 85.1% | viability, T/C [3] 88.3% | viability, T/C [4] 80% | viability, T/C [5] 81.1% | viability, T/C [6] 37.6% | viability, T/C [7] 81.4% | viability, T/C [8] 81.4% | viability, T/C [9] 91.5% | viability, T/C [10] 81.1% | viability, T/C [11] 91.1% | viability, T/C [12] 49.7% | viability, T/C [13] 92.6% | viability, T/C [14] 82.1% | viability, T/C [15] 79.1% | viability, T/C [16] 81.6% | viability, T/C [17] 75.1% | viability, T/C [18] 40.4% | viability, T/C [19] 74.2% | viability, T/C [20] 83.1% | viability, T/C [21] 83.9% | viability, T/C [22] 87.8% | viability, T/C [23] 82.1% | viability, T/C [24] 43.1% | viability, T/C [25] 81% | viability, T/C [26] 83.3% | viability, T/C [27] 96.7% | viability, T/C [28] 77.5% | viability, T/C [29] 78.5% | viability, T/C [30] 42.5% | viability, T/C [31] 80.3% | viability, T/C [32] 75.8% | viability, T/C [33] 82.6% | viability, T/C [34] 80.1% | viability, T/C [35] 95.8% | viability, T/C [36] 35.9%

CC(C)n1c(=O)n(C)c2cnc3cc(F)c(-c4ccc(OCCCN5CCCCC5)nc4)cc3c21 + Cc1cccc(N(C)C(=O)C2C(O)CCN2c2nc(C)cc(C(F)(F)F)c2C#N)c1
inactive: viability, T/C [1] 89.1% | viability, T/C [2] 76.9% | viability, T/C [3] 83.4% | viability, T/C [4] 77.9% | viability, T/C [5] 83% | viability, T/C [6] 59.9% | viability, T/C [7] 88.8% | viability, T/C [8] 77.1% | viability, T/C [9] 77.2% | viability, T/C [10] 79.9% | viability, T/C [11] 98.7% | viability, T/C [12] 65.8% | viability, T/C [13] 80.3% | viability, T/C [14] 89.8% | viability, T/C [15] 75.9% | viability, T/C [16] 73.6% | viability, T/C [17] 79.7% | viability, T/C [18] 65.1% | viability, T/C [19] 84% | viability, T/C [20] 75.1% | viability, T/C [21] 80.1% | viability, T/C [22] 73.1% | viability, T/C [23] 79.1% | viability, T/C [24] 69.8% | viability, T/C [25] 73.7% | viability, T/C [26] 75.3% | viability, T/C [27] 75.3% | viability, T/C [28] 64.4% | viability, T/C [29] 72% | viability, T/C [30] 72.1% | viability, T/C [31] 78.7% | viability, T/C [32] 79.5% | viability, T/C [33] 89.2% | viability, T/C [34] 73.9% | viability, T/C [35] 70.3% | viability, T/C [36] 56.1%
> 10 µM: IC50 (second compound 0.0316 µM) | IC50 (second compound 0.1 µM) | IC50 (second compound 0.316 µM) | IC50 (second compound 1 µM) | IC50 (second compound 3.16 µM) | IC50 (second compound 10 µM)

CC(C)n1c(=O)n(C)c2cnc3cc(F)c(-c4ccc(OCCCN5CCCCC5)nc4)cc3c21 + Nc1ccc(C#CCN(C(=O)Cc2ncc(C(F)(F)F)cc2C(F)(F)F)c2ccc(F)cc2)nn1
> 10 µM: IC50 (second compound 0.0316 µM) | IC50 (second compound 0.1 µM) | IC50 (second compound 0.316 µM) | IC50 (second compound 1 µM) | IC50 (second compound 3.16 µM) | IC50 (second compound 10 µM)
inactive: viability, T/C [1] 95.4% | viability, T/C [2] 96.4% | viability, T/C [3] 83.3% | viability, T/C [4] 94.3% | viability, T/C [5] 81.7% | viability, T/C [6] 72.6% | viability, T/C [7] 97.9% | viability, T/C [8] 92.6% | viability, T/C [9] 85.3% | viability, T/C [10] 87.6% | viability, T/C [11] 78.9% | viability, T/C [12] 73.6% | viability, T/C [13] 90.4% | viability, T/C [14] 96.7% | viability, T/C [15] 84.7% | viability, T/C [16] 88.8% | viability, T/C [17] 81.4% | viability, T/C [18] 74.9% | viability, T/C [19] 98.5% | viability, T/C [20] 98.2% | viability, T/C [21] 87% | viability, T/C [22] 94.5% | viability, T/C [23] 84.7% | viability, T/C [24] 77.8% | viability, T/C [25] 92.6% | viability, T/C [26] 87.5% | viability, T/C [27] 82.1% | viability, T/C [28] 80.7% | viability, T/C [29] 85.9% | viability, T/C [30] 85.3% | viability, T/C [31] 85.5% | viability, T/C [32] 89.7% | viability, T/C [33] 77% | viability, T/C [34] 77.8% | viability, T/C [35] 75.2% | viability, T/C [36] 73.8%
